Results as given in ChEMBL document CHEMBL1142825, “Synthesis and antiviral activity against Coxsackie virus B3 of some novel benzimidazole derivatives” (Bioorg Med Chem Lett, 2005).
In brackets after ≈: the same amount, converted by molar mass. Several values for one entry are separate records, joined by “and”; a condition that tells them apart may be missing. Identical values can stand only once.

Key:
Vero [1] = assay: Antiviral activity against Coxsackie virus B3 growth by 50% in Vero cells; format: functional, cell-based, Chlorocebus sabaeus
Vero [2] = assay: Selectivity index (TC50/IC50) against Coxsackie virus B3 in Vero cells; format: functional, Chlorocebus sabaeus
Vero [3] = assay: Cytotoxic concentration required to inhibit Vero cell growth by 50%; format: functional, Chlorocebus sabaeus; conditions: for CC50: Chlorocebus sabaeus, Vero, read-out: TC50 (the source's name)
Vero [4] = assay: Antiviral activity against Coxsackie virus B3 growth by 50% in Vero cells:not active; format: functional, cell-based, Chlorocebus sabaeus
[5] = Chlorocebus sabaeus, Vero, read-out: IC50

| Compound | IC50 (Vero [1]; [5]) | SI (Vero [2]) | CC50 (Vero [3]) | IC50 (Vero [4]) | IC50 (Vero [1]; vero) | TC50 (Vero [3]) |
| --- | --- | --- | --- | --- | --- | --- |
| O=C(Nc1cccc(Br)c1)c1cccc2[nH]c(-c3ccncc3)nc12 | 4.12 µg/mL (≈ 10.5 µM) | 2 | < 8.24 µg/mL |  |  |  |
| O=C(Nc1ccccc1F)c1cccc2[nH]c(-c3ccncc3)nc12 |  |  | 12.3 µg/mL (≈ 37 µM) | Not Active |  |  |
| O=C(Nc1ccccc1)c1cccc2[nH]c(-c3cccnc3)nc12 | 1.17 µg/mL (≈ 3.72 µM) | 9.17 | 10.7 µg/mL (≈ 34.2 µM) |  |  |  |
| O=C(Nc1ccccc1O)c1cccc2[nH]c(-c3ccncc3)nc12 | 4.05 µg/mL (≈ 12.3 µM) | 4.56 | < 18.5 µg/mL |  |  |  |
| Cc1ccccc1NC(=O)c1cccc2[nH]c(-c3ccncc3)nc12 | 2.42 µg/mL (≈ 7.37 µM) | 11.48 and 4.81 |  |  | 2.23 µg/mL (≈ 6.79 µM) | <27.8 µg/mL and <10.74 µg/mL |
| O=C(Nc1cccc(O)c1)c1cccc2[nH]c(-c3ccncc3)nc12 |  |  | < 5.9 µg/mL | Not Active |  |  |
| NC(=O)c1cccc2[nH]c(-c3cccnc3)nc12 | 6.2 µg/mL (≈ 26 µM) | 2.98 | 18.5 µg/mL (≈ 77.6 µM) |  |  |  |
| O=C(Nc1ccc([N+](=O)[O-])cc1)c1cccc2[nH]c(-c3ccncc3)nc12 | 18.5 µg/mL (≈ 51.5 µM) | 2.99 | < 55.5 µg/mL |  |  |  |
| O=C(Nc1ccccc1)c1cccc2[nH]c(-c3ccccn3)nc12 | 1.43 µg/mL (≈ 4.55 µM) | 38.8 | 55.6 µg/mL (≈ 177 µM) |  |  |  |
| O=C(NCCO)c1cccc2[nH]c(-c3ccncc3)nc12 |  |  | 141 µg/mL (≈ 498 µM) | Not Active |  |  |
| O=C(Nc1ccccc1F)c1cccc2[nH]c(-c3cccnc3)nc12 | 3.23 µg/mL (≈ 9.72 µM) | 11.4 | 37 µg/mL (≈ 111 µM) |  |  |  |
| O=C(NCCO)c1cccc2[nH]c(-c3cccnc3)nc12 | 25.6 µg/mL (≈ 90.6 µM) | 7.51 | 192 µg/mL (≈ 682 µM) |  |  |  |
| NC(=O)c1cccc2[nH]c(-c3ccccn3)nc12 | 7.29 µg/mL (≈ 30.6 µM) | 7.32 | 53.4 µg/mL (≈ 224 µM) |  |  |  |
| O=C(Nc1ccc(Cl)cc1)c1cccc2[nH]c(-c3ccncc3)nc12 | 8.72 µg/mL (≈ 25 µM) | 2.35 | < 20.9 µg/mL |  |  |  |
| O=C(Nc1ccccc1)c1cccc2[nH]c(-c3ccncc3)nc12 | 3.85 µg/mL (≈ 12.2 µM) | 4.06 | 15.6 µg/mL (≈ 49.8 µM) |  |  |  |
| O=C(NCCO)c1cccc2[nH]c(-c3ccccn3)nc12 | 37 µg/mL (≈ 131 µM) | 4.32 | 160 µg/mL (≈ 567 µM) |  |  |  |
| O=C(Nc1ccccc1F)c1cccc2[nH]c(-c3ccccn3)nc12 | 0.54 µg/mL (≈ 1.62 µM) | 28.3 | 15.3 µg/mL (≈ 46.1 µM) |  |  |  |
| NC(=O)c1ncn([C@@H]2O[C@H](CO)[C@@H](O)[C@H]2O)n1 [RIBAVIRIN] | 448 µg/mL (≈ 1830 µM) | >2.23 | > 1000 µg/mL |  |  |  |
